# Reference: US20240327493A1 (GEORGE MASON UNIVERSITY, priority 2023, published 2024)
# Entries after “also recorded” stand apart in the source; their conditions may differ.
# Tested on: human PBMCs co-cultured with OVCAR8 cells
# Assay: Co-culture of OVCAR8 cells and stimulated human PBMCs, 1:10 OVCAR8:PBMC ratio
# Format: cell-based
# Details: for Immunosuppressive effect (reduction in TNFα/cytokines) compared with controls rPD-L1 and MN_Null: 1:10 OVCAR8:PBMC co-culture, FIG. 10D; for TNFα levels / IL-2 levels: 1:10 OVCAR8:PBMC, 24 hours, vs untreated co-culture control; for TNFα levels: ELISA, FIG. 10C; for IL-2 levels: FIG. 10B
# Experimental: For this model, PBMCs and cancer cells were both stimulated prior to co-culture to promote expression of PD-1 and PD-L1, respectively.
# OVCAR8 cells, generously provided by the Gottesman Lab (National Institutes of Health, Bethesda, MD, USA), and MDA-MB-231 cells (American Type Culture Collection, Rockville, MD, USA) were cultured in Gibco RPMI 1640 media (ThermoFisher Scientific, Cat. No. 11-875-093) supplemented with 10% Gibco fetal bovine serum (ThermoFisher Scientific, Cat. No. 10437028), and 1% penicillin/streptomycin (10,000 U/mL pen, 10 mg/mL strcp) from MilliporeSigma (Burlington, MA, USA, Cat. No. P4333). Cells were cultured at 37° C. and 5% CO2. Passage number was kept below 3 for co-culture assay. Human peripheral blood mononuclear cells were purchased frozen from […] PBMCs were thawed according to manufacturer's instructions one day before co-culture and cultured in the same media and conditions as cancer cell lines.
# The next day, cells were stimulated with 100 ng/mL IFNγ and two vials of human PBMCs were thawed. On Day 3, concentrations of PBMCs and OVCAR8 cells (harvested from a control well) were measured using the QuadCount Automated Cell Counter. The concentration of PBMCs required for a 1:10 OVCAR8:PBMC ratio was calculated from the OVCAR8 concentration. PBMCs were plated on a separate 24-well plate (1 mL/well) and stimulated with 5 μg/mL of anti-CD3 and 5 μg/mL of anti-CD28 for 30 minutes before drug treatment. […] After 30 minutes, media was removed from OVCAR8 wells without treatment, and replaced with 1 mL of treated PBMCs. After 24 hours, the supernatants were collected from each well, and centrifuged at 10,000×g for 5 minutes to remove any remaining cells.
# Briefly, samples from co-culture experiments with excess OVCAR8 ratios were diluted 1:10 in assay buffer, and samples from co-culture experiments with excess PBMC ratios were diluted 1:5 in assay buffer. Next, 10 μL of the diluted samples were mixed with 10 μL of an IL-2 antibody-oligonucleotide conjugate mixture and added to a 96-well working plate. Samples with excess OVCAR8 ratios were allowed to incubate overnight at 4° C. Samples with excess PBMCs were allowed to incubate for 1 hour at room temperature. Next, 80 μL of qPCR reaction mixture containing master mix and DNA ligase was added to each well. The plate was centrifuged at 2,500×g for 2 minutes. Samples were then added in triplicate (20 μL/well) to a 96-well PCR plate (ThermoFisher Scientific). PCR was run according to manufacturer's instructions using the QuantStudio 7 Pro Real-Time PCR System equipped with a 96-well, 0.2 mL block from ThermoFisher Scientific.
# Remaining samples from experiments with excess PBMC ratios were analyzed using TNFα (Cat. No. 430204) ELISA MAX Deluxe Sets (BioLegend, San Diego, CA, USA) according to manufacturer's instructions. Briefly, 96-well Nunc™ MaxiSorp™ ELISA Plates (BioLegend, Cat. No. 423501) were coated with capture antibodies for TNFα and incubated overnight at 4° C. The next day, the plate was washed 4× with 1×PBS+0.05% Tween-20 (PBS-T). To block non-specific binding, 200 μL of assay dilutant buffer was added to each well and the plate was incubated at room temperature for 1 hour on a shaker. The plate was washed as before, and 100 μL of the samples or standards were added to each well in triplicate and incubated at room temperature for 2 hours on a shaker. The plate was washed 4× and 100 μL of detection antibody for TNFα was added to each well, and the plate was incubated at room temperature for 1 hour on a shaker. The plate was washed 4× and 100 μL of Avidin-HRP was added to each well, and the plate was incubated at room temperature for 30 minutes on a shaker.
structure (smiles),measurement,setting,value
"CC[C@H](C)[C@@H]1NC(=O)[C@H](CCSC)NC(=O)[C@H](C)NC(=O)[C@H](CCCNC(=N)N)NC(=O)[C@@H](N)CSSC[C@@H](C(=O)O)NC(=O)[C@H]([C@@H](C)CC)NC(=O)[C@H](CCCNC(=N)N)N(C)C(=O)[C@H](CCCCN)NC(=O)[C@H](Cc2ccc(O)cc2)NC(=O)[C@H](CC(=O)O)NC(=O)[C@H](C)NC(=O)CNC(=O)CNC(=O)[C@H](Cc2ccc(O)cc2)NC(=O)[C@H](CO)NC1=O [SEQ ID NO. 5, CRAMISYGGADYKXIC]",Immunosuppressive effect (reduction in TNFα/cytokines) compared with controls rPD-L1 and MN_Null,listed as MN 1.4,less potent than recombinant PD-L1
same,Immunosuppressive effect (reduction in TNFα/cytokines) compared with controls rPD-L1 and MN_Null,listed as MN1.4,not a significant difference in cytokine levels between the MN1.4 and rPD-L1 treatment groups; also recorded: recapitulated the biological effects of full-length PD-L1; also recorded: the same reduction in TNFα as rPD-L1
same,TNFα levels,listed as MN 1.4,reduced in a dose-dependent manner
same,TNFα levels,listed as MN1.4,same pattern of T cell suppression was observed; also recorded: significantly decreased; also recorded: shown to decrease IL-2 and TNFα secretion; also recorded: A reduction in this cytokine was also observed
same,IL-2 levels,listed as MN 1.4,reduced in a dose-dependent manner
same,IL-2 levels,listed as MN1.4,same pattern of T cell suppression was observed; also recorded: significantly decreased; also recorded: shown to decrease IL-2 and TNFα secretion; also recorded: A dose-dependent reduction in IL-2 was observed
